According to US20120214802A1, “PYRROLIDINE COMPOUNDS WHICH INHIBIT BETA-SECRETASE ACTIVITY AND METHODS OF USE THEREOF” (priority 2009, published 2012):

target: memapsin 2 (Homo sapiens, UniProt P56817); assay: Inhibition of memapsin 2 beta-secretase activity (fluorogenic substrate FS-2); type: biochemical; details: pH 4, 37° C., read-out: M2 Ki
Method: Potency of compounds were determined by measurement of their inhibition of memapsin 2 activity toward a fluorescent substrate. Kinetic inhibition experiments were performed using the procedure as described in Ermolieff, et al. (Biochemistry 39:12450-12456 (2000), the teachings of which are incorporated hereby in their entirety). Briefly, assays were performed at pH 4, 37° C., by pre-incubation of memapsin 2 enzyme with compound for 20 minutes. Activity measurements were initiated by addition of a fluorogenic substrate FS-2 (Bachem Americas, Torrance, Calif.) MCA-SEVNLDAEFR-DNP (SEQ ID NO.: 2). The substrate was derived from 10 amino acids of the human amyloid precursor protein (APP), with the Swedish variant amino acids at the beta-secretase cleavage site. The terminal amino acid was modified from arginine to lysine to facilitate derivatization with a functional group for detection by autofluorescence. The amino acid sequence of the “core” peptide of the substrate is SEVNLDAEFK (SEQ ID NO.: 3). The amino terminus was derivatized with (7-methoxycoumarin-4-yl)acetyl (MCA), and the epsilon amine of the lysine side chain of the terminal residue (K in sequence SEVNLDAEFK (SEQ ID NO.: 3)) was derivatized with 2,4-dinitorphenyl (DNP).

Sequence of memapsin 2 (P56817 46-501): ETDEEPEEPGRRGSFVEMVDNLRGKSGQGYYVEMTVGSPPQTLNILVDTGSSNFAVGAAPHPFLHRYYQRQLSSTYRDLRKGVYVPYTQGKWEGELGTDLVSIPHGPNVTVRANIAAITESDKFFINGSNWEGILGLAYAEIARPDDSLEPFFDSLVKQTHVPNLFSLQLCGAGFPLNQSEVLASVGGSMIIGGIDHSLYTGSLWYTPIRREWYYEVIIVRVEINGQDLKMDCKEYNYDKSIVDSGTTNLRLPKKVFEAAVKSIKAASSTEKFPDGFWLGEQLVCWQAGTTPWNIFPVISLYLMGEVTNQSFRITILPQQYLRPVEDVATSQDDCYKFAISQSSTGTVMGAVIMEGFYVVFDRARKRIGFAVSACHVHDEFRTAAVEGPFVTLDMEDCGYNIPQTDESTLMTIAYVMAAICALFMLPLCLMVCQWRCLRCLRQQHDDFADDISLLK

Compound | Ki [nM]
Cc1coc([C@H]2CCCN2C(=O)c2cccc(C(=O)N[C@@H](Cc3ccccc3)[C@H](O)[C@H]3CCCN3C(=O)OC(C)(C)C)c2)n1 [1-3, (R)-tert-butyl 2-((1S,2S)-1-hydroxy-2-(3-((R)-2-(4-methyloxazol-2-yl)pyrrolidine-1-carbonyl)benzamido)-3-phenylpropyl)pyrrolidine-1-carboxylate] | > 750
CCCN(CCC)C(=O)c1cccc(C(=O)N[C@@H](Cc2ccccc2)[C@H](O)[C@H]2CCCN2)c1 [2-12, N1-((1R,2S)-1-hydroxy-3-phenyl-1-((R)-pyrrolidin-2-yl)propan-2-yl)-N3,N3-dipropylisophthalamide, reference compound] | > 750
O=C(N[C@@H](Cc1ccccc1)[C@H](O)[C@H]1CCCN1)c1cccc(CN2CCCC2=O)c1 [2-13, N-((1R,2S)-1-hydroxy-3-phenyl-1-((R)-pyrrolidin-2-yl)propan-2-yl)-3-((2-oxopyrrolidin-1-yl)methyl)benzamide, reference compound] | > 750
Cc1csc(CN(C)C(=O)c2cccc(C(=O)N[C@@H](Cc3cccc(F)c3)[C@H](O)[C@H]3CCCN3)c2)n1 [1-54, N1-((1R,2S)-3-(3-fluorophenyl)-1-hydroxy-1-((R)-pyrrolidin-2-yl)propan-2-yl)-N3-methyl-N3-((4-methylthiazol-2-yl)methyl)isophthalamide] | 250 to 750
Cc1csc(CN(C)C(=O)c2cccc(C(=O)N[C@@H](Cc3ccc(F)cc3)[C@H](O)[C@H]3CCCN3)c2)n1 [1-66, N1-((1R,2S)-3-(4-fluorophenyl)-1-hydroxy-1-((R)-pyrrolidin-2-yl)propan-2-yl)-N3-methyl-N3-((4-methylthiazol-2-yl)methyl)isophthalamide] | > 750

More lines, now with the values ahead:

Ki [nM] | Compound
< 250 | Cc1csc([C@H]2CCCN2C(=O)c2cc(Cl)cc(C(=O)N[C@@H](Cc3ccccc3)[C@H](O)[C@H]3CCCN3)c2)n1 [1-56, 3-chloro-N-((1R,2S)-1-hydroxy-3-phenyl-1-((R)-pyrrolidin-2-yl)propan-2-yl)-5-((R)-2-(4-methylthiazol-2-yl)pyrrolidine-1-carbonyl)benzamide]
> 750 | Cc1csc([C@H]2CCCN2C(=O)c2cccc(C(=O)N[C@@H](Cc3ccccc3)[C@H](O)[C@H]3CCC(C)(C)N3)c2)n1 [1-67, N-((1R,2S)-1-((R)-5,5-dimethylpyrrolidin-2-yl)-1-hydroxy-3-phenylpropan-2-yl)-3-((R)-2-(4-methylthiazol-2-yl)pyrrolidine-1-carbonyl)benzamide]
< 250 | Cc1csc(CN(C)C(=O)c2cc(C(=O)N[C@@H](Cc3ccccc3)[C@H](O)[C@H]3CCCN3)cc(-c3ccc(F)cc3F)c2)n1 [1-30, 2′,4′-difluoro-N3-((1R,2S)-1-hydroxy-3-phenyl-1-((R)-pyrrolidin-2-yl)propan-2-yl)-N5-methyl-N5-((4-methylthiazol-2-yl)methyl)biphenyl-3,5-dicarboxamide]
250 to 750 | Cc1csc([C@H]2CCCN2C(=O)c2cc(C(=O)N[C@@H](Cc3ccccc3)[C@H](O)[C@H]3CCCN3)cc(-n3ccnc3)c2)n1 [1-77, N-((1R,2S)-1-hydroxy-3-phenyl-1-((R)-pyrrolidin-2-yl)propan-2-yl)-3-(1H-imidazol-1-yl)-5-((R)-2-(4-methylthiazol-2-yl)pyrrolidine-1-carbonyl)benzamide]
< 250 | Cc1csc([C@H]2CCCN2C(=O)c2cc(C(=O)N[C@@H](Cc3cc(F)cc(F)c3)[C@H](O)[C@H]3CCCN3)cc(-c3cnccn3)c2)n1 [1-63, N-((1R,2S)-3-(3,5-difluorophenyl)-1-hydroxy-1-((R)-pyrrolidin-2-yl)propan-2-yl)-3-((R)-2-(4-methylthiazol-2-yl)pyrrolidine-1-carbonyl)-5-(pyrazin-2-yl)benzamide]
< 250 | Cc1csc([C@H]2CCCN2C(=O)c2cc(C(=O)N[C@@H](Cc3ccccc3)[C@H](O)[C@H]3CCCN3)cc(C(F)(F)F)c2)n1 [1-72, N-((1R,2S)-1-hydroxy-3-phenyl-1-((R)-pyrrolidin-2-yl)propan-2-yl)-3-((R)-2-(4-methylthiazol-2-yl)pyrrolidine-1-carbonyl)-5-(trifluoromethyl)benzamide]
